Values after ≈ are worked out from the molar mass of the structure shown. Where a name gives a salt, the structure may show the parent alone. Read-outs that look alike come from different tables or passages of the source.
Columns and labels:
[1] = Effect of different alkaline agents on paracetamol absorption in vivo (5 subject crossover studies, plasma paracetamol); conditions: human, oral, 1000 mg, two tablets each 500 mg paracetamol, fasted, read-out: Median AUC20 (converted)
Protocol: In a series of multiple 5 subject crossover studies, the effect of a range of different formulations containing different alkali agents on in vivo absorption were investigated. Subjects were fasted overnight and dosed with two tablets each containing 500 mg paracetamol. Plasma levels of paracetamol were monitored for 8 hours, with 10 samples taken in the first hour.

[2] = Dissolution, USP dissolution apparatus 2, 900 mL 0.0033 N hydrochloric acid, 30 rpm, 37° C.; type: physicochemical; conditions: basic and amphoteric drugs in formulations according to the invention (Table 32)
Protocol: (§1) Testing was conducted in a dissolution medium containing 900 mL 0.0033 N hydrochloric acid (HCl) at 37° C. which discriminates better between fast dissolving formulations than more acidic dissolution media where the effect of high acid concentration tends to mask formulation effects on dissolution. 900 mL of this medium contains the absolute amount of acid estimated to be present in the gastric contents in vivo, namely 3 millimoles.
(§2) Testing at was conducted at a stirring speed of 30 rpm and also at 0 rpm which provides more discrimination between formulations. To achieve maximum dissolution, the stirring speed was increased to 250 rpm for 10 minutes after 20 minutes for measurements at 30 rpm, and after 60 minutes for measurements at 0 rpm.
(§3) Unless otherwise stated, drug concentrations were measured using a Varian Cary 50 UV-Vis Spectrophotometer set at an appropriate wavelength using flow through cells for automatic continuous sampling. For each drug, the optimal wavelength was selected after running UV scans in the dissolution medium.
A suitable C18 column and guard column were used. Results were processed using Waters Empower software.

[3] = Dissolution, USP dissolution apparatus 2, 900 mL 0.0033 N hydrochloric acid, 0 rpm, 37° C.; type: physicochemical; conditions: basic and amphoteric drugs in formulations according to the invention (Table 32), 0 rpm
Protocol: as §1
Dissolution results without stirring may be of in vivo significance in conditions where there is gut stasis or reduced gastric activity.
as §2, §3

[4] = 30 minutes, 30 rpm (increased to 250 rpm after 20 minutes)

SMILES | % dissolved in 900 mL 0.0033 N HCl ([2]; 180 sec, 30 rpm) [%] | % dissolved in 900 mL 0.0033 N HCl ([2]; 300 sec, 30 rpm) [%] | % dissolved in 900 mL 0.0033 N HCl ([2]; 15 minutes, 30 rpm) [%] | % dissolved in 900 mL 0.0033 N HCl [2, 4] [%] | % dissolved in 900 mL 0.0033 N HCl ([3]; 180 sec) [%] | % dissolved in 900 mL 0.0033 N HCl ([3]; 300 sec) [%] | % dissolved in 900 mL 0.0033 N HCl ([3]; 15 minutes) [%] | % dissolved in 900 mL 0.0033 N HCl ([3]; 30 minutes) [%] | other results
CC(=O)Nc1ccc(O)cc1 [Paracetamol] |  |  |  |  |  |  |  |  | Effect of ↑ pH on solubility (Solubility in water): ⇄; Volume of water (mL) to dissolve dose (Solubility in water; dose per tablet as in label): 36 mL; water needed for total dissolution of the dose (Solubility in water; doses of Example 33 (tramadol hydrochloride 37.5 mg, paracetamol 325 mg)): around 27 mL; solubility (Solubility in water; water): ~14 mg/mL (≈ 92.6 mM); AUC ([1]; Magnesium carbonate, dose 150 mg): 1140 ng·h/mL; AUC ([1]; Magnesium carbonate, dose 300 mg): 2010 ng·h/mL; AUC ([1]; Sodium bicarbonate, dose 200 mg): 3810 ng·h/mL; AUC ([1]; Sodium bicarbonate, dose 400 mg): 4760 ng·h/mL; AUC ([1]; Sodium bicarbonate, dose 800 mg): 4400 ng·h/mL; AUC ([1]; Sodium bicarbonate, dose 1200 mg): 2680 ng·h/mL; AUC ([1]; alkaline agent None, dose 0 mg): 1590 ng·h/mL
COc1cccc(C2(O)CCCCC2CN(C)C)c1 (centres unmarked) [Tramadol hydrochloride] | 100 | 100 | 100 | 100 | 87 | 95 | 99 | 100 | solubility (physchem): ~30 mg/mL; solubility (physchem; water): ~30 mg/mL; Volume (mL) of water to dissolve dose (Solubility in water): 1.3 mL; water needed for total dissolution of the dose (Solubility in water): around 1 mL
Cc1ccc(-c2nc3ccc(C)cn3c2CC(=O)N(C)C)cc1 [Zolpidem tartrate] | 96 | 96 | 97 | 98 | 77 | 91 | 94 | 96 | Volume (mL) of water to dissolve dose (Solubility in water; dose (mg) of each drug as in Table 78): 0.4 mL

— patent US9757455B2, “Oral therapeutic compound delivery system” (Johnson & Johnson Consumer Inc., priority 2005, dated 2017)
